# Where two headings read alike, the source gives them in different places.
# Columns and labels:
# Ad5 [1] = test: HDP-CDV in Ad5-infected normal and CP-immunosuppressed Syrian hamsters; format: in vivo; conditions: 2.5 mg/kg oral gavage daily for 6 days, Days 3 and 6
# Protocol: FIGS. 12A-12D are graphical representations illustrating HDP-CDV decreasing adenovirus induced liver toxicity and viral load.
# Syrian hamsters (females, average weight 98 g) were immunosuppressed with twice weekly injections of cyclophosphamide (starting on Day −6; 140 mg/kg i.p. for the first dose, then 100 mg/kg). On Day 0, the animals were injected intravenously (into the jugular vein) with 1.9×10^12 vp/kg (ca. 3×10^10 PFU/animal) of Ad5 or AdCMVpA, and half of them were treated with HDPCDV (2.5 mg/kg via oral gavage daily for 6 days, starting on Day −1). On Days 3 and 6, hamsters were sacrificed and their sera were analyzed for transaminases (panel A=ALT; panel B=AST) and bilirubin (panel C). Infectious virus titers in the liver were determined, by TCID50 assays; the dashed line in the graph marks the threshold of quantifiability, horizontal lines represent group means, n-4, except for clinical chemistry for the Ad5 CP group on Day 6 (n=2); the error bars represent standard deviation.
# Ad5 [2] = test: HDP-CDV in Ad5-infected immunosuppressed mice; format: in vivo; conditions: daily 2.5 mg/kg oral gavage
# Protocol: Immunocompetent mice and mice immunosuppressed with CP were injected intravenously with 1.5×10^11 vp/kg of Ad5 or AdCMVpA, a replication defective adenovirus. Half of the animals in each group were treated via oral gavage with daily doses of 2.5 mg/kg of HDP-CDV, starting a day before virus injection. At the indicated times, mice were sacrificed and infectious virus titers in the liver were determined.
# [3] = system: Ad serotypes from Species A, B, C, D, E, and F in HEp-2 cells; conditions: cited from earlier work
# HaK tumors = format: in vivo, hamsters; conditions: CP twice weekly
# Protocol: In an illustrative example, a tumor experiment in hamsters immunosuppressed with cyclophosphamide (CP) was conducted. Hamsters with very large (about 1.1 ml mean) established tumors (formed by the hamster renal cancer cell line named HaK) were treated with CP on day 1, then starting on day 4 the tumors were injected with VRX-007, Ad5, or buffer. CP was administered twice weekly throughout the study. […] Established large, about 1.1 ml, subcutaneous HaK tumors were injected intratumorally (6 injections, 1×10^10 PFU each) with VRX-007, wild-type Ad5, or vehicle (saline only). For each of these treatments, one group was immunosuppressed with CP and one group remained immunocompetent. Tumor volumes were measured with digital calipers twice per week. […] The tumors are from the 42 day time point.
# VRX-007 = test: Cidofovir inhibition of VRX-007 replication in A549 cells (crystal violet staining); format: cell-based, human adenovirus; conditions: 10 or 0.1 PFU/cell, stained seven days post infection
# Protocol: A549 cells were mock-infected or infected with 10 or 0.1 plaque-forming units (PFU)/cell of VRX-007. Concomitantly, cidofovir was added to the medium at the indicated concentrations. The cells were stained with crystal violet dye at seven days post infection. Cidofovir has shown some efficacy in the rabbit and cotton rat models of ocular models of Ad5 infection.
# [4] = system: Ad serotypes 1, 2, 5, and 8; conditions: cited from earlier work
# Ad5 [5] = conditions: rabbit; cited from earlier work
# Ad5 [6] = conditions: cotton rat; cited from earlier work
# Ad ocular infections = conditions: large multi-center trial, humans, cited from earlier work
# Ad = conditions: cited from earlier work
# [7] = in vivo; cited from earlier work
# [8] = prospective study, eight pediatric stem cell transplant patients
smiles,measurement,setting,value
"CCCCCCCCCCCCCCCCOCCCOP(=O)(O)CO[C@H](CO)Cn1ccc(N)nc1=O [HDP-CDV, Hexadecyloxypropyl-cidofovir]","adenoviral loads (infectious virus titers in the liver, TCID50)",Ad5 [1],effectively and significantly reduces
same,"liver toxicity (ALT, AST, bilirubin)",Ad5 [1],effectively and significantly reduces liver toxicity
same,replication of Ad5 (infectious virus titers in the liver),Ad5 [2],suppressing the replication
NC(=O)c1ncn([C@@H]2O[C@H](CO)[C@@H](O)[C@H]2O)n1 [ribavirin],inhibition of Ad replication by species,[3],Only Species C was inhibited
"O=P1(N(CCCl)CCCl)NCCCO1 (stereo not shown) [CP, cyclophosphamide]",growth of buffer-injected tumors,HaK tumors,did not affect growth
same,total white blood cell (WBC) count,CP twice weekly,dropped to very low levels by day 12
same,hemoglobin level (average),"CP-treated hamsters, end of experiment (42 days), 15.95 g/dl at the start",6.95 g/dL
same,red blood cells (RBC),"CP-treated hamsters, end of experiment, 8.39×10^6/mm^3 at the start",3.96×10^6 mm^3
"Nc1ccn(C[C@@H](CO)OCP(=O)(O)O)c(=O)n1 [cidofovir, (S)-9-[3-hydroxy-2-(phosphonomethyloxy)propyl] cytosine]",inhibition of replication of VRX-007,VRX-007,inhibits the replication
same,inhibition of Ad replication in cell culture,[4],"potent, nontoxic inhibitor"
same,inhibition of Ad replication by species,[3],"inhibited replication in HEp-2 cells of serotypes from Species A, B, D, E, and F"
same,efficacy in ocular model of Ad5 infection,Ad5 [5],some efficacy
same,efficacy in ocular model of Ad5 infection,Ad5 [6],some efficacy
same,efficacy against Ad ocular infections,Ad ocular infections,Significant efficacy
same,efficacy/toxicity ratio,Ad ocular infections; trial discontinued,narrow efficacy/toxicity ratio
same,toxicity of systemic use,Ad; accumulation of the drug in renal proximal tubules,nephrotoxicity
same,efficacy against Ad-associated hemorrhagic cystitis and renal dysfunction,Ad; bone marrow transplant patients,effective
same,resolution of Ad infection in case reports,"Ad; disseminated Ad in pediatric liver transplant patient, Ad7 in B cell lymphoma adult patient with meningoencephalitis",seemed to resolve
same,efficacy against Ad,Ad; patients immunosuppressed because of stem cell and bone marrow transplants,some efficacy
same,dose-limiting nephrotoxicity,Ad; [8],without dose-limiting nephrotoxicity
same,suppression of Ad,Ad; [8],seemed to provide long term suppression of Ad
same,oral bioavailability,[7],poor oral bioavailability
